Earlier results, collected in patent US20030119882A1, “Solid pharmaceutical composition containing torasemide” (priority 2001, published 2003).

Conditions: present in very fine dispersion in a pharmaceutical tablet; prior art, cf. EP 212 537 A

Cc1cccc(Nc2ccncc2S(=O)(=O)NC(=O)NC(C)C)c1 [torasemide of the modification II, 1-isopropyl-3-[(4-m-toluidino-3-pyridyl)sulphonyl]urea]
Rearrangement of modification II to modification I: rearranges more or less rapidly to the modification I
